Measured values from patent publication US20200316051A1, “TLR7/8 ANTAGONISTS AND USES THEREOF” (Merck Patent GmbH, priority 2017, published 2020).

How the values were obtained:
[1] = test system: TLR7/8; test: Cytokine production in human PBMCs stimulated with TLR7 agonist, let7c miRNA or let7/DOTAP in the presence of TLR7/8 antagonist; format: cell-based
Description: Human PBMCs were treated with TLR7 agonist (TLR7), let7c miRNA or transfected with let7c miRNA (let7/DOTAP) in the presence of TLR7/8 antagonist (Compound 467 in Table 1 above). Levels of IL-6 (FIG. 3) and IFNα (FIG. 4) were measured following overnight incubation.

[2] = test system: TLR7/8; test: Activation of human PBMCs by LL37 alone or in complex with GU trimer or let-7c miRNA, with or without TLR7/8 inhibitor; format: cell-based
Description: Binding of LL37 to miRNA enables delivery of miRNA to human PBMCs and stimulate TLR7/8-mediated production of cytokines. Human recombinant LL37 protein was used alone, or in a complex with GU trimer or let-7c miRNA to activate human PBMCs in the presence or absence of TLR7/8 inhibitor (Compound 467 in Table 1 above). Levels of IL-6 (FIG. 5) and IFNα (FIG. 6) were measured following overnight incubation.

C[C@@H]1CN(c2ccc(C#N)c3nccnc23)C[C@H](CN2CCC(N3CCOCC3)CC2)O1 [Compound 467]
levels of IL-6 induced by let-7 miRNA ([1]; overnight incubation (FIG. 3)): blocks production of cytokines | levels of IFNα induced by let-7 miRNA ([1]; overnight incubation (FIG. 4)): blocks production of cytokines | TLR7/8 activation by LL37-RNA complexes, levels of IL-6 ([2]; overnight incubation (FIG. 5)): the activation is suppressed | TLR7/8 activation by LL37-RNA complexes, levels of IFNα ([2]; overnight incubation (FIG. 6)): the activation is suppressed
